Experimental data reported in US20150015931A1, “ELECTROWETTING FLUIDS” (Merck Patent GmbH, priority 2012, published 2015).
Values belong to the compound of their own block, whether it stands above or below them.

What was measured:
[1] = Solubility testing: saturation concentration of dye in non-polar solvent; conditions: for Saturation concentration (%): in decane
Protocol: A typical solubility test consists of one or more dyes dissolved in a suitable non-polar (hydrophobic) solvent, for example decane, at a concentration of 20% by weight for each dye. Samples are first vortex mixed for approximately 3 minutes and sonicated at 50° C. br 30 mins. They are then stirred for approximately 16 hours to ensure complete saturation. After stirring, samples are left to stand at room temperature for 2 hours before filtering through a 200 nm PTFE filter to give a saturated solution of dye in solvent.
The saturation concentrations and/or absorbance data for cells of varying thickness can be derived using the Beer-Lambert law:
Where A is absorbance (arbitrary unit) e=Molar extinction coefficient, c=Concentration (mol/l), l=path length (cm).
(§1) The absorbance is measured using a Hitachi UV3310 UV-vis spectrophotometer.

[2] = Absorbance of the saturated dye solution at 5 micron thickness (Beer-Lambert law, UV-vis); type: physicochemical; conditions: in decane; for Absorbance (theoretical), at 5 micron thickness: Table 8
Protocol: as §1

[3] = at the wavelength printed in the row, Table 6b
[4] = at the wavelength printed in the row, Table 5
[5] = at the wavelength printed in the row

- Saturation wt % in decane ([1]; Table 1 Blue/Black Dyes): 5.17 wt %
Compound: CCCCCCCCCCCCN(CCCCCCCCCCCC)c1ccc(/N=N/c2cc(OCC(CC)CCCC)c(/N=N/c3ccc([N+](=O)[O-])cc3[N+](=O)[O-])cc2OCC(CC)CCCC)c(C)c1 (stereo not shown) [Dye 1e, 4-((E)-(4-((E)-(2,4-Dinitrophenyl)diazenyl)-2,5-bis(2-ethylhexyloxy)phenyl)diazenyl)-3-methyl-N,N-di-n-dodecylaniline]

- Saturation wt % in decane ([1]; Table 4 Yellow Dyes): 3.72 wt %
- Saturation concentration (%) ([1]; Table 6b): 3.72%
- Absorbance at wavelength, at 5 micron thickness [2, 3]: 0.915
Compound: CCCCCCCCCCCCCCc1ccc(/N=N/c2c(C)cc(=O)n(CC(CC)CCCC)c2O)cc1 (stereo not shown) [Dye 13, (E)-1-(2-ethylhexyl)-6-hydroxy-4-methyl-5-((4-tetradecylphenyl)diazenyl)pyridin-2(1H)-one]

- Dye saturation concentration % in Decane as solvent [1]: 0.62%
- Dye saturation concentration % in (Decane/dye 2 as solvent) [1]: 1.34%
- Dye saturation concentration % in (Decane/dye 12 as solvent) [1]: 1.14%
- Saturation concentration (%) ([1]; Table 5): 0.657%
- Saturation concentration (%) ([1]; Table 6a): 0.657%
- Saturation concentration (%) ([1]; Table 8): 0.66%
- Absorbance at wavelength, at 5 micron thickness ([2]; 646 nm, Table 6a): 0.0938
- Absorbance at wavelength, at 5 micron thickness [2, 4]: 0.114
- Absorbance (theoretical), at 5 micron thickness [2, 5]: 0.0938
Compound: CCCCCNc1ccc(NCCCCC)c2c1C(=O)c1ccccc1C2=O [Oil Blue N, reference compound]

- Saturation wt % in decane ([1]; Table 4 Yellow Dyes): 1.03 wt %
- Saturation concentration (%) ([1]; Table 6b): 1.03%
- Absorbance at wavelength, at 5 micron thickness [2, 3]: 0.332
Compound: CCCCCCCCCCCCCCc1ccc(/N=N/c2c(C)c(C#N)c(=O)n(CC(CC)CCCC)c2O)cc1 (stereo not shown) [Dye 12, (E)-1-(2-Ethylhexyl)-6-hydroxy-4-methyl-2-oxo-5-((4-tetradecylphenyl)diazenyl)-1,2-dihydropyridine-3-carbonitrile]

- Dye saturation concentration % in Decane as solvent [1]: 1.17%
- Dye saturation concentration % in (Decane/dye 2 as solvent) [1]: 1.91%
- Dye saturation concentration % in (Decane/dye 12 as solvent) [1]: 1.49%
- Saturation concentration (%) ([1]; Table 5): 1.615%
- Absorbance at wavelength, at 5 micron thickness [2, 4]: 0.2594
Compound: Cc1ccc(C)c(N=Nc2cc(C)c(N=Nc3c(O)ccc4ccccc34)cc2C)c1 [Oil Red O, reference compound]

Compound: CCCCCCCCN(CCCCCCCC)c1ccc(/N=N/c2ccc([N+](=O)[O-])cc2)c(C)c1 [Dye 15, (E)-3-Methyl-4-((4-nitrophenyl)diazenyl)-N,N-dioctylaniline]
- Saturation wt % in decane ([1]; Table 4 Yellow Dyes): 10.50 wt %
- Saturation concentration (%) ([1]; Table 5): 8.58%
- Absorbance at wavelength, at 5 micron thickness [2, 4]: 2.765

- Saturation wt % in decane ([1]; Table 1 Blue/Black Dyes): 15.2 wt %
Compound: CCCCCCCCCCCCCCN(CCCCCCCCCCCCCC)c1ccc(/N=N/c2cc(OCC(CC)CCCC)c(/N=N/c3ccc([N+](=O)[O-])cc3[N+](=O)[O-])cc2OCC(CC)CCCC)c(C)c1 (stereo not shown) [Dye 1f, 4-((E)-(4-((E)-(2,4-Dinitrophenyl)diazenyl)-2,5-bis(2-ethylhexyloxy)phenyl)diazenyl)-3-methyl-N,N-di-n-tetradecylaniline]

Compound: CCCCNc1ccc(NCCCC)c2c1C(=O)c1ccccc1C2=O [Solvent Blue 35, reference compound]
- Dye saturation concentration % in Decane as solvent [1]: 0.33%
- Dye saturation concentration % in (Decane/dye 2 as solvent) [1]: 0.69%
- Dye saturation concentration % in (Decane/dye 12 as solvent) [1]: 0.62%
- Saturation concentration (%) ([1]; Table 5): 0.385%
- Saturation concentration (%) ([1]; Table 6a): 0.385%
- Saturation concentration (%) ([1]; Table 8): 0.385%
- Absorbance at wavelength, at 5 micron thickness ([2]; 646 nm, Table 6a): 0.0531
- Absorbance at wavelength, at 5 micron thickness [2, 4]: 0.044
- Absorbance (theoretical), at 5 micron thickness [2, 5]: 0.0531

- Saturation wt % in decane ([1]; Table 1 Blue/Black Dyes): 3.53 wt %
Compound: CCCCC(CC)COc1cc(/N=N/c2ccc([N+](=O)[O-])cc2[N+](=O)[O-])c(OCC(CC)CCCC)cc1/N=N/c1ccc(N(CCC(C)CC(C)(C)C)CCC(C)CC(C)(C)C)cc1C (stereo not shown) [Dye 1c, 4-((E)-(4-((E)-(2,4-Dinitrophenyl)diazenyl)-2,5-bis(2-ethylhexyloxy)phenyl)diazenyl)-3-methyl-N,N-d i-(3,5,5-trimethylhexyl)aniline]

- Dye saturation concentration % in Decane as solvent [1]: 0.003%
- Dye saturation concentration % in (Decane/dye 2 as solvent) [1]: 0.18%
- Dye saturation concentration % in (Decane/dye 12 as solvent) [1]: 0.18%
- Saturation wt % in decane ([1]; Table 2 Cyan Dyes): 0.003 wt %
Compound: CCCCCCCCCCCCCCCCCCN(CCCCCCCCCCCCCCCCCC)c1cc(NC(C)=O)c(/N=N/c2c(C#N)cc([N+](=O)[O-])cc2C#N)cc1OC [Dye 8, N-(2-((2,6-Dicyano-4-nitrophenyl)diazenyl)-5-(dioctadecylamino)-4-methoxyphenyl)acetamide]

Compound: CCCCCCCCN(CCCCCCCC)c1ccc(/N=N/c2cc(OCC(CC)CCCC)c(/N=N/c3ccc([N+](=O)[O-])cc3[N+](=O)[O-])cc2OCC(CC)CCCC)c(C)c1 (stereo not shown) [Dye 1a, 4-((E)-(4-((E)-(2,4-Dinitrophenyl)diazenyl)-2,5-bis(2-ethylhexyloxy)phenyl)diazenyl)-3-methyl-N,N-dioctylaniline]
- Saturation wt % in decane ([1]; Table 1 Blue/Black Dyes): 100 wt %
- Saturation concentration (%) ([1]; Table 7): 1.000%
- Absorbance (theoretical), at 5 um thickness ([2]; at the wavelength printed in the row, Table 7): 0.188

Compound: CCCCC(CC)COc1cc(/N=N/c2ccc([N+](=O)[O-])cc2[N+](=O)[O-])c(OCC(CC)CCCC)cc1/N=N/c1ccc(N(CC(CC)CCCC)CC(CC)CCCC)cc1C (stereo not shown) [Dye 1b, 4-((E)-(4-((E)-(2,4-Dinitrophenyl)diazenyl)-2,5-bis(2-ethylhexyloxy)phenyl)diazenyl)-3-methyl-N,N-di-(2-ethylhexyl)aniline]
- Saturation wt % in decane ([1]; Table 1 Blue/Black Dyes): 17.19 wt %

- Dye saturation concentration % in Decane as solvent [1]: 0.19%
- Dye saturation concentration % in (Decane/dye 2 as solvent) [1]: 0.62%
- Dye saturation concentration % in (Decane/dye 12 as solvent) [1]: 0.41%
- Saturation wt % in decane ([1]; Table 3 Magenta Dyes): 0.19 wt %
Compound: CCCCCCCCN(CCCCCCCC)c1ccc(/N=N/c2snc(C)c2C#N)c(NC(C)=O)c1 [Dye 11, N-(2-((4-Cyano-3-methylisothiazol-5-yl)diazenyl)-5-(dioctylamino)phenyl)acetamide]

- Saturation concentration (%) ([1]; Table 5): 0.6%
- Absorbance at wavelength, at 5 micron thickness [2, 4]: 0.1579
Compound: Cc1ccccc1/N=N/c1ccc(/N=N/c2c(O)ccc3ccccc23)c(C)c1 [Solvent Red 24, reference compound]

- Saturation wt % in decane ([1]; Table 1 Blue/Black Dyes): 16.67 wt %
Compound: CCCCCCCCCCCCN(CCC(C)CC(C)(C)C)c1ccc(/N=N/c2cc(OCC(CC)CCCC)c(/N=N/c3ccc([N+](=O)[O-])cc3[N+](=O)[O-])cc2OCC(CC)CCCC)c(C)c1 (stereo not shown) [Dye 1g, 4-((E)-(4-((E)-(2,4-Dinitrophenyl)diazenyl)-2,5-bis(2-ethylhexyloxy)phenyl)diazenyl)-3-methyl-N-dodecyl-N-(3,5,5-trimethylhexyl)aniline]

- Saturation wt % in decane ([1]; Table 1 Blue/Black Dyes): 2.39 wt %
Compound: CCCCCCCCCCN(CCCCCCCCCC)c1ccc(/N=N/c2cc(OCC(CC)CCCC)c(/N=N/c3ccc([N+](=O)[O-])cc3[N+](=O)[O-])cc2OCC(CC)CCCC)c(C)c1 (stereo not shown) [Dye 1d, 4-((E)-(4-((E)-(2,4-Dinitrophenyl)diazenyl)-2,5-bis(2-ethylhexyloxy)phenyl)diazenyl)-3-methyl-N,N-di-n-decylaniline]

- Saturation wt % in decane ([1]; Table 4 Yellow Dyes): 9.95 wt %
Compound: CCCCc1ccc(/N=N/c2ccc(N(CCCC)CCCC)cc2)cc1 [Dye 14]
